The text below walks through data of ChEMBL document CHEMBL1127954, “A new approach to synthesis of vinblastine analogs. Addition of organozinc reagents to the dihydropyridinium ion generated by fragmentative coupling to catharanthine and vindoline” (Bioorg Med Chem Lett, 1994).

Structures are written as SMILES. Where “and” joins values, the source holds several entries; their conditions need not be identical. Identical values can stand only once.

This experiment addresses Tubulin (Bos taurus, UniProt Q6B856+Q862L2+Q862F3). As to the kind of experiment: In vitro inhibitory activity against bovine brain tubulin assembly at a concentration of 3-3.5 mg/ml. The format is functional.

As to `CCC1=CC2CN(CCc3c([nH]c4ccccc34)[C@@](C(=O)OC)(c3cc4c(cc3OC)N(C)C3C45CCN4CC=CC(CC)(C45)C(OC(C)=O)[C@]3(O)C(=O)OC)C2)[C@@H]1C#Cc1ccccc1` (stereo not given in full), the IC50 – broadly, the point on the concentration scale where inhibition reaches its midpoint – is 21000 nM and 28000 nM.

For `CCC1=CC2CN(CCc3c([nH]c4ccccc34)[C@@](C(=O)OC)(c3cc4c(cc3OC)N(C)C3C45CCN4CC=CC(CC)(C45)C(OC(C)=O)[C@]3(O)C(=O)OC)C2)[C@@H]1c1ccccc1` (stereo not given in full), the IC50 was 1400 nM and 1600 nM. Regarding `CCC1CN2CCc3c([nH]c4ccccc34)[C@@](C(=O)OC)(c3cc4c(cc3OC)N(C)C3C45CCN4CC=CC(CC)(C45)C(OC(C)=O)[C@]3(O)C(=O)OC)CC(C2)[C@H]1CC` (stereo not given in full), the IC50 is 1300 nM and 1400 nM. For the molecule `CCC1CN2CCc3c([nH]c4ccccc34)[C@@](C(=O)OC)(c3cc4c(cc3OC)N(C)C3C45CCN4CC=CC(CC)(C45)C(OC(C)=O)[C@]3(O)C(=O)OC)CC(C2)[C@H]1C(C)(C)C` (stereo not given in full), the IC50 came out at 400 nM. For `CCC1CN2CCc3c([nH]c4ccccc34)[C@@](C(=O)OC)(c3cc4c(cc3OC)N(C)C3C45CCN4CC=CC(CC)(C45)C(OC(C)=O)[C@]3(O)C(=O)OC)CC(C2)[C@H]1c1ccccc1` (stereo not given in full) the value was 500 nM and 600 nM.
